Values quoted from earlier work in patent US12606719B2, “Methods and compositions comprising biodegradable cyanoacrylates” (FEMASYS, INC., priority 2017, dated 2026).

Conditions: versus cyanoacrylates that degrade by chain scission

hydrophilicity: more hydrophilic
Substance: methoxypropyl cyanoacrylate
